Assay results published in patent publication US20260042764A1, “COMPOSITIONS AND METHODS FOR INHIBITION OF KRAS” (TheRas, Inc., priority 2022, published 2026).

Experiments:
[1] = target: T1, Avi-KRAS G12D (1-169) GppNHp/RAF1 RBD-3xFLAG (52-151) (Homo sapiens, UniProt P01116, G12D); assay: Raf1-KRAS G12D-GppNHP disruption HTRF assay (Biological Example 1); type: binding
T1 construct: Avi-KRAS G12D (1-169)
Procedure, shortened: (§1)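 Read-out is HTRF signal of the KRAS–RAF1 RBD complex, reported as percentage of activity relative to DMSO (100%). Protein mix and detection reagents each incubated 1 h at room temperature with 700 rpm shaking. Buffer: 50 mM Tris pH 7.5, 100 mM NaCl, 5 mM MgCl2, 0.1% BSA, 0.01% Tween, 10% DMSO.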

[2] = target: T2, Avi-KRAS G12R (1-169) GppNHp/RAF1 RBD-3xFLAG (52-151) (Homo sapiens, UniProt P01116, G12R); assay: Raf1-KRAS G12R-GppNHP disruption HTRF assay (Biological Example 1); type: binding
T2 construct: Avi-KRAS G12R (1-169)
Procedure, shortened: as §1

[3] = target: T3, Avi-KRAS G12V (1-169) GppNHp/RAF1 RBD-3xFLAG (52-151) (Homo sapiens, UniProt P01116, G12V); assay: Raf1-KRAS G12V-GppNHP disruption HTRF assay (Biological Example 1); type: binding
T3 construct: Avi-KRAS G12V (1-169)
Procedure, shortened: as §1

[4] = target: T4, Avi-KRAS WT (1-169) GppNHp/RAF1 RBD-3xFLAG (52-151) (Homo sapiens, UniProt P01116); assay: Raf1-KRAS WT-GppNHP disruption HTRF assay (Biological Example 1); type: binding
T4 construct: Avi-KRAS WT (1-169)
Procedure, shortened: as §1

[5] = system: GP2d cells (KRAS G12D); assay: Cell-based pERK HTRF assay in GP2d cell (Biological Example 2); conditions: GP2d, GP2d (KRAS G12D) cells, pERK HTRF
Procedure, shortened: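 HTRF read-out of pERK (excitation 320 nm, emission 615 nm) after lysates sat 4–24 h at room temperature with Eu cryptate and d2 antibodies.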

[6] = system: SW620 cells (KRAS G12V); assay: Cell-based pERK HTRF assay in SW620 cell (Biological Example 4); conditions: Homo sapiens, SW-620, SW620 (KRAS G12V) cells, pERK HTRF
Procedure: A pERK assay (Perkin Elmer) was used to determine the effectiveness of compounds in disrupting KRAS G12V protein/effector signaling in cells.
On Day 1, cells (SW620) were seeded into 96-well plates at 3×10^4 cells/well in 80 μL complete growth media (RPMI, 10% FBS).
On Day 2, cells were treated with compounds at 0.25% DMSO. The source plate was created with compounds diluted in media at 5-fold the final assay concentration. The compounds were run in a 9-point concentration curve starting at 1 μM, with a half-log dilution between concentrations. Twenty μL was transferred onto the cell plates (final volume in wells was 100 μL). Plates were harvested after 4 h incubation by aspirating media and adding kit-supplied 1x supplemented lysis buffer to all wells (50 μL per well). Plates were then placed on a plate shaker and incubated at 850 rpm for an additional 30 min.
Antibody mixture solution was prepared by diluting aliquoted d2 and Eu Cryptate antibodies 1:20 in kit supplied detection buffer and mixing the diluted antibodies solutions (1:1 v:v).
Samples were homogenized by pipetting up and down and then transferred (16 μL of cell lysates) from the 96-well cell culture plate to two wells of the HTRF 384-well detection plate containing the antibody solution. Plates were centrifuged (524 g for Imin) and allowed to incubate between 4 and 24 h at room temperature. […] Plates were centrifuged again (524 g for 1 min), then analyzed on the En Vision plate reader using the following settings: Excitation 320 nm, Bandwidth 75 nm; Emission 615 nm, Bandwidth 85 nm; Gain 100%; Flashes 100; Lag 60 μs.

[7] = KRAS G12D, GppNHp-loaded, Table 11
[8] = KRAS G12R, GppNHp-loaded, Table 11
[9] = KRAS G12V, GppNHp-loaded, Table 11
[10] = KRAS WT, GppNHp-loaded, Table 11
[11] = KRAS G12D, GppNHp-loaded, class symbols
[12] = KRAS G12R, GppNHp-loaded, class symbols
[13] = KRAS G12V, GppNHp-loaded, class symbols
[14] = KRAS WT, GppNHp-loaded, class symbols

T1 sequence (P01116 1-169 isoform P01116-2 G12D): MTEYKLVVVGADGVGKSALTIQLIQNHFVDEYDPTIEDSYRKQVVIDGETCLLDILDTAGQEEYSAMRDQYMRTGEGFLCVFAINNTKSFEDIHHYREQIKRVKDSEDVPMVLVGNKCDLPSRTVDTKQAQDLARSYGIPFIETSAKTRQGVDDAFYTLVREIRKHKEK
T2 sequence (P01116 1-169 isoform P01116-2 G12R): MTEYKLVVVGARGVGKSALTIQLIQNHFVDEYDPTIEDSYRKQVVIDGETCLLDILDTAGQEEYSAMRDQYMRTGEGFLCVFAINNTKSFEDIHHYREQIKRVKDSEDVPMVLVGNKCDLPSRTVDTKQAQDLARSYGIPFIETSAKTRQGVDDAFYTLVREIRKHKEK
T3 sequence (P01116 1-169 isoform P01116-2 G12V): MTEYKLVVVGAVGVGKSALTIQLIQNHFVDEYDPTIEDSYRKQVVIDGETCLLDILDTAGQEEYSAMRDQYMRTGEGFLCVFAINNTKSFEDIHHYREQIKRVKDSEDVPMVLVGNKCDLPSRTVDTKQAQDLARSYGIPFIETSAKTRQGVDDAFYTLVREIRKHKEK
T4 sequence (P01116 1-169 isoform P01116-2): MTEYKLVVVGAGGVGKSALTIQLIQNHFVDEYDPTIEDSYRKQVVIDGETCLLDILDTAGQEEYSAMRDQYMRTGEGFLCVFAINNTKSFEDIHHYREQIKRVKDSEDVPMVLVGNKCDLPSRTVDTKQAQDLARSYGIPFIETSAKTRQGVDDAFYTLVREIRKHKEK

IC50 ([1]; KRAS G12D-GppNHp/RAF1 RBD HTRF) [nM] | IC50 ([2]; KRAS G12R-GppNHp/RAF1 RBD HTRF) [nM] | IC50 ([3]; KRAS G12V-GppNHp/RAF1 RBD HTRF) [nM] | IC50 ([4]; KRAS WT-GppNHp/RAF1 RBD HTRF) [nM] | IC50 [5] [nM] | IC50 [6] [nM] | IC50 [1, 7] [nM] | IC50 [2, 8] [nM] | IC50 [3, 9] [nM] | IC50 [4, 10] [nM] | IC50 [1, 11] [nM] | IC50 [2, 12] [nM] | IC50 [3, 13] [nM] | IC50 [4, 14] [nM] | IC50 ([5]; class symbols) [nM] | IC50 ([6]; class symbols) [nM] | Structure (SMILES)
100 to 1000 | 100 to 1000 | 100 to 1000 | 100 to 1000 | < 100 | < 100 | – | – | – | – | – | – | – | – | – | – | CCN(c1nc(OC[C@@]23CCCN2C[C@H](F)C3)nc2c(F)c(-c3ccc(F)c4sc(N)c(C#N)c34)c(C(F)(F)F)cc12)[C@@H]1C[C@H](C)N(C(=O)OC)C1 (atropisomer, axis not shown) [Compound 544]
– | – | – | – | < 100 | 100 to 1000 | 100 to 1000 | 100 to 1000 | 100 to 1000 | 100 to 1000 | – | – | – | – | – | – | CC(=O)N1C[C@H](F)[C@@H](N(C)c2nc(OC[C@@]34CCCN3C[C@H](F)C4)nc3c(F)c(-c4ccc(F)c5sc(N)c(C#N)c45)c(C(F)(F)F)cc23)C1 [Compound 273]
100 to 1000 | 100 to 1000 | 100 to 1000 | 100 to 1000 | < 100 | < 100 | – | – | – | – | – | – | – | – | – | – | CN(c1nc(OC[C@@]23CCCN2C[C@H](F)C3)nc2c(F)c(-c3ccc(F)c4sc(N)c(C#N)c34)c(C(F)(F)F)cc12)[C@H]1C[C@H](CF)N(C(=O)C2CC2)C1 [Compound 462]
– | – | – | – | – | – | – | – | – | – | < 100 | < 100 | < 100 | < 100 | < 100 | < 100 | CCN(c1nc(OC[C@@]23CCCN2C[C@H](F)C3)nc2c(F)c(-c3ccc(F)c4sc(N)c(C#N)c34)c(C(F)(F)F)cc12)[C@H]1CCN(C(=O)O[C@H]2CCOC2)C1 (atropisomer, axis not shown) [Compound 682]
100 to 1000 | 100 to 1000 | 100 to 1000 | 100 to 1000 | < 100 | < 100 | – | – | – | – | – | – | – | – | – | – | CC(=O)N1C[C@H](N(C)c2nc(OC[C@@]34CCCN3C[C@H](F)C4)nc3c(F)c(-c4ccc(F)c5sc(N)c(C#N)c45)c(C(F)(F)F)cc23)C[C@H]1C [Compound 321]
100 to 1000 | 100 to 1000 | 100 to 1000 | 100 to 1000 | < 100 | < 100 | – | – | – | – | – | – | – | – | – | – | CC(=O)N1CC[C@@H]2[C@H]1CN2c1nc(OC[C@@]23CCCN2C[C@H](F)C3)nc2c(F)c(-c3ccc(F)c4sc(N)c(C#N)c34)c(C(F)(F)F)cc12 [Compound 514]
– | – | – | – | – | – | – | – | – | – | 100 to 1000 | 100 to 1000 | 100 to 1000 | 100 to 1000 | < 100 | < 100 | CCC(=O)N1C[C@@H](N(CC)c2nc(OC[C@@]34CCCN3C[C@H](F)C4)nc3c(F)c(-c4ccc(F)c5sc(N)c(C#N)c45)c(C(F)(F)F)cc23)C[C@H]1COC (atropisomer, axis not shown) [Compound 649]
– | – | – | – | – | – | – | – | – | – | < 100 | < 100 | < 100 | 100 to 1000 | < 100 | < 100 | CCOC(=O)N1CC[C@H](N(CC)c2nc(OC[C@@]34CCCN3C[C@H](F)C4)nc3c(F)c(-c4ccc(F)c5sc(N)c(C#N)c45)c(C(F)(F)F)cc23)C1 (atropisomer, axis not shown) [Compound 686]
– | – | – | – | – | < 100 | 100 to 1000 | 100 to 1000 | 100 to 1000 | 100 to 1000 | – | – | – | – | – | – | CN(c1nc(OC[C@@]23CCCN2C[C@H](F)C3)nc2c(F)c(-c3ccc(F)c4sc(N)c(C#N)c34)c(C(F)(F)F)cc12)C1CC(F)C1 (stereo partly shown) [Compound 161]
100 to 1000 | 100 to 1000 | 100 to 1000 | 100 to 1000 | – | < 100 | – | – | – | – | – | – | – | – | – | – | CCN(c1nc(OC[C@@]23CCCN2C[C@H](F)C3)nc2c(F)c(-c3ccc(F)c4sc(N)c(C#N)c34)c(C(F)(F)F)cc12)[C@@H]1CCN(C(C)=O)[C@@H]1C [Compound 407]
